Assay results as given in ChEMBL document CHEMBL4414679, “Discovery of 4,6-pyrimidinediamine derivatives as novel dual EGFR/FGFR inhibitors aimed EGFR/FGFR1-positive NSCLC” (Eur J Med Chem, 2020).

Experiments:
[1] = test system: HCC827; experiment: Antiproliferative activity against human HCC827 cells assessed as inhibition of cell growth at 10 uM incubated for 48 hrs by MTT assay relative to control; assay type: functional; details: HCC827, 48 h
[2] = test system: NCI-H1581; experiment: Antiproliferative activity against human NCI-H1581 cells assessed as inhibition of cell growth at 10 uM incubated for 48 hrs by MTT assay relative to control; assay type: functional; details: NCI-H1581, 48 h
[3] = test system: NCI-H226; experiment: Antiproliferative activity against human NCI-H226 cells assessed as inhibition of cell growth at 10 uM incubated for 48 hrs by MTT assay relative to control; assay type: functional; details: NCI-H226, 48 h
[4] = target: Fibroblast growth factor receptor 1 (Homo sapiens, UniProt P11362); experiment: Inhibition of N-terminal GST-tagged human FGFR1 cytoplasmic domain (398-822 AA) expressed in baculovirus at 10 uM using FAM-labelled peptide as substrate pre-incubated for 10 mins followed by substrate addition by mobility shift assay relative to control
Chain of Fibroblast growth factor receptor 1 (P11362 22-822 limits assumed): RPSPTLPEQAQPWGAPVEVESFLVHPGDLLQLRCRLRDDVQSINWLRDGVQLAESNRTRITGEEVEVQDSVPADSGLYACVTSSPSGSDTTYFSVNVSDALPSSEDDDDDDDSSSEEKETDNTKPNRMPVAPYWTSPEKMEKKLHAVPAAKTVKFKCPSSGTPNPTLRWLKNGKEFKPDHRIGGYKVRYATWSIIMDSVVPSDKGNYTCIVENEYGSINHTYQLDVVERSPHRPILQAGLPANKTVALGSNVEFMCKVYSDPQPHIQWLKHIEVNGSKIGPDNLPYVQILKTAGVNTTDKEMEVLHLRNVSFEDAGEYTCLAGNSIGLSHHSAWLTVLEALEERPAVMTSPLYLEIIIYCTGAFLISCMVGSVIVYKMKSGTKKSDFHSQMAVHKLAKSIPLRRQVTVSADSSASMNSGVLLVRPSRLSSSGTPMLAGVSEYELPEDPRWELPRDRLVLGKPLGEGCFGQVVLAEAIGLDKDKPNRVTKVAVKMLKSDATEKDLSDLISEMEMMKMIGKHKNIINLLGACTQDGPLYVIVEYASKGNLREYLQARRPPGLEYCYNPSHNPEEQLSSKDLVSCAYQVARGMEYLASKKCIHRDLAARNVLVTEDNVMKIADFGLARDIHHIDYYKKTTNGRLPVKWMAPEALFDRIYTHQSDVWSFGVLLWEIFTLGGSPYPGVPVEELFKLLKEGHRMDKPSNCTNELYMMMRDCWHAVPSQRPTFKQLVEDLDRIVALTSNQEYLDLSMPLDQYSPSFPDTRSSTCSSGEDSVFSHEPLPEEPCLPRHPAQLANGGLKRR

[5] = target: T1, Epidermal growth factor receptor (Homo sapiens, UniProt P00533); experiment: Inhibition of N-terminal GST-tagged human EGFR (d746-750AA) expressed in baculovirus at 10 uM using FAM-labelled peptide as substrate pre-incubated for 10 mins followed by substrate addition by mobility shift assay relative to control
T1 sequence (P00533 whole entry): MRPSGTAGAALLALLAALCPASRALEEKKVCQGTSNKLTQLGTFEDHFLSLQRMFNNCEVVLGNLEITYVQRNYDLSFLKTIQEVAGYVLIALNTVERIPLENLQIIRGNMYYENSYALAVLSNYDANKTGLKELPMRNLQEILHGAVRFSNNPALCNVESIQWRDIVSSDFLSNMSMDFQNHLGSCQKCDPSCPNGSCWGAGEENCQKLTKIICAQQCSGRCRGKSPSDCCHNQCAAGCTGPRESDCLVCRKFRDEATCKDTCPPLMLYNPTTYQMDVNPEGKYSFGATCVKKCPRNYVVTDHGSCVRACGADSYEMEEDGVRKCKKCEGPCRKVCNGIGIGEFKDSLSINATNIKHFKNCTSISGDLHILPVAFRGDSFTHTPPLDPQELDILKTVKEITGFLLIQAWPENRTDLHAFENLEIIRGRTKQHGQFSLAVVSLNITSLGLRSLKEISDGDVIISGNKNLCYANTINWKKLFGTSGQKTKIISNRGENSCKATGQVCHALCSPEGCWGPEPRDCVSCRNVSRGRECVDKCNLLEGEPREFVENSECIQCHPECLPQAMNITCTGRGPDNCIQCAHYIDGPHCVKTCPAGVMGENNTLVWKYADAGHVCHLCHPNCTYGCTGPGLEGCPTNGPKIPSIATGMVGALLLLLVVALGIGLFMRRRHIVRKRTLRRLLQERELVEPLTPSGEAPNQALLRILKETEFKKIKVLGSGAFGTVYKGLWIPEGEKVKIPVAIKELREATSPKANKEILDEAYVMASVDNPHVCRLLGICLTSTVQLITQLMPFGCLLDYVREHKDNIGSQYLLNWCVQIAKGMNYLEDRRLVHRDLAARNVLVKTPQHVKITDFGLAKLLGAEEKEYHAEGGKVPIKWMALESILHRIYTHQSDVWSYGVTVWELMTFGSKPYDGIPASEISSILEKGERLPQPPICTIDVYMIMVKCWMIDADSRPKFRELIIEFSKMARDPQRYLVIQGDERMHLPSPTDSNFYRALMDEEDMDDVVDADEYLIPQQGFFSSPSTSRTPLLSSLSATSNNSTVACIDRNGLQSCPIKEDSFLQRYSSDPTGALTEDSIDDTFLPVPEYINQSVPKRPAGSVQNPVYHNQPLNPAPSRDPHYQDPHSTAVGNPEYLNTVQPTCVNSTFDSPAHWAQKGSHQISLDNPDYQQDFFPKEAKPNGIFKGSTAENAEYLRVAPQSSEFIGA

[6] = test system: PC-9; experiment: Antiproliferative activity against human PC9 cells assessed as inhibition of cell growth at 10 uM incubated for 48 hrs by MTT assay relative to control; assay type: functional; details: PC-9, 48 h
[7] = test system: NCI-H520; experiment: Antiproliferative activity against human NCI-H520 cells assessed as inhibition of cell growth at 10 uM incubated for 48 hrs by MTT assay relative to control; assay type: functional; details: NCI-H520, 48 h
[8] = target: T1, Epidermal growth factor receptor; experiment: Inhibition of N-terminal GST-tagged human EGFR cytoplasmic domain (669-1210 AA) expressed in baculovirus at 10 uM using FAM-labelled peptide as substrate pre-incubated for 10 mins followed by substrate addition by mobility shift assay relative to control
[9] = test system: Epidermal growth factor receptor (Homo sapiens), P00533 [L858R]; experiment: Inhibition of recombinant human EGFR L858R mutant expressed in baculovirus at 10 uM using FAM-labelled peptide as substrate pre-incubated for 10 mins followed by substrate addition by mobility shift assay relative to control
Chain of Epidermal growth factor receptor (Homo sapiens), P00533 [L858R] (P00533 whole entry L858R): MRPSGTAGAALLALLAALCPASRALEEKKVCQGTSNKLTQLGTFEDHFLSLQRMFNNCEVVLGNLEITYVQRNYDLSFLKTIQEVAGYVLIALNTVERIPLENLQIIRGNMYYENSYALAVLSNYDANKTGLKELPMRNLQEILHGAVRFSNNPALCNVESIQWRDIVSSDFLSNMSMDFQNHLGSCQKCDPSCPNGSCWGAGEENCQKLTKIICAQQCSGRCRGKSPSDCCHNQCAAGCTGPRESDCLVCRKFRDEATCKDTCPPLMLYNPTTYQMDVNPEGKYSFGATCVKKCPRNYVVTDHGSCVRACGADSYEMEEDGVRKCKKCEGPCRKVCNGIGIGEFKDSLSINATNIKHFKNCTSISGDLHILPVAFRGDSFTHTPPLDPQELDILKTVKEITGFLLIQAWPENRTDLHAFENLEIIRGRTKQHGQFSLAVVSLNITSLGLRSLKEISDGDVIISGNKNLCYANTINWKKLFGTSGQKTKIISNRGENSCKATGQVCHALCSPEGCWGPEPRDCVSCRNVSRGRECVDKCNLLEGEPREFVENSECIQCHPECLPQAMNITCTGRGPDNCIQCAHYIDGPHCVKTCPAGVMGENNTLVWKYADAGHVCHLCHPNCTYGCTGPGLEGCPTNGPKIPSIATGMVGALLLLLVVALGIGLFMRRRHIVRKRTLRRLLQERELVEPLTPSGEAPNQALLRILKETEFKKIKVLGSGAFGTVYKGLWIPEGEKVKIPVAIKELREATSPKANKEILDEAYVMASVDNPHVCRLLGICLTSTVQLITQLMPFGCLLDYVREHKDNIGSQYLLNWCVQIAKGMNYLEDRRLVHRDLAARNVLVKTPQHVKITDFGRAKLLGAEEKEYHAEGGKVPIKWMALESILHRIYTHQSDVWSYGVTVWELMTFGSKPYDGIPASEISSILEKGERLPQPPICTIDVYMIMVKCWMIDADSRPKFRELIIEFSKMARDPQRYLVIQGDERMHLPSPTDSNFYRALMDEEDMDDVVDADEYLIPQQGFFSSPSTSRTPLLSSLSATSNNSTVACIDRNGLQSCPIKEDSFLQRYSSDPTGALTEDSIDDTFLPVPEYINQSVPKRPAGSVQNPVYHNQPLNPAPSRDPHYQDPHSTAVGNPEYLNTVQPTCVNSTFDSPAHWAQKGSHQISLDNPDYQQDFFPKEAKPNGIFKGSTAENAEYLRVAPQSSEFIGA

## COc1cc(NC(=O)Nc2cc(Nc3cc(F)ccc3OC)ncn2)cc(OC)c1
[1]
  inhibition at 10 µM: 59%
[2]
  inhibition at 10 µM: 42.1%
[3]
  inhibition at 10 µM: 37.7%
[4]
  inhibition: -1.6%
[5]
  inhibition: 35.4%
[6]
  inhibition at 10 µM: 59.5%
[7]
  inhibition at 10 µM: 38%
[8]
  inhibition: 31.1%
[9]
  inhibition: 54.6%

## COc1cc(NC(=O)Nc2cc(Nc3cc(OC)cc(C(F)(F)F)c3)ncn2)cc(OC)c1
[1]
  inhibition at 10 µM: 57.7%
[2]
  inhibition at 10 µM: 50.7%
[3]
  inhibition at 10 µM: 56%
[4]
  inhibition: -1.7%
[5]
  inhibition: 27.5%
[6]
  inhibition at 10 µM: 88.1%
[7]
  inhibition at 10 µM: 36.5%
[8]
  inhibition: 18.5%
[9]
  inhibition: 48.6%

## COc1cc(NC(=O)Nc2cc(Nc3cccc(C(C)(C)C)c3)ncn2)cc(OC)c1
[1]
  inhibition at 10 µM: 48.7%
[2]
  inhibition at 10 µM: 35%
[3]
  inhibition at 10 µM: 40%
[4]
  inhibition: 5.2%
[5]
  inhibition: 10.4%
[6]
  inhibition at 10 µM: 68%
[7]
  inhibition at 10 µM: 13.1%
[8]
  inhibition: 17.1%
[9]
  inhibition: 29.3%

## COc1cc(Nc2cc(NC(=O)Nc3c(Cl)cccc3Cl)ncn2)cc(C(F)(F)F)c1
[1]
  inhibition at 10 µM: 57.7%
[2]
  inhibition at 10 µM: 32.3%
[3]
  inhibition at 10 µM: 33.1%
[4]
  inhibition: 0.9%
[5]
  inhibition: 48.4%
[6]
  inhibition at 10 µM: 88.5%
[7]
  inhibition at 10 µM: 23.1%
[8]
  inhibition: 40%
[9]
  inhibition: 69.3%

## O=C(Nc1cc(Nc2ccc(F)c(Cl)c2)ncn1)Nc1c(Cl)cccc1Cl
[1]
  inhibition at 10 µM: 53.7%
[2]
  inhibition at 10 µM: 67%
[3]
  inhibition at 10 µM: 47.3%
[4]
  inhibition: 27.6%
[5]
  inhibition: 96.7%
[6]
  inhibition at 10 µM: 91.1%
[7]
  inhibition at 10 µM: 39.5%
[8]
  inhibition: 94.3%
[9]
  inhibition: 97%

## CCc1ccc(Nc2cc(NC(=O)Nc3c(Cl)cccc3Cl)ncn2)cc1
[1]
  inhibition at 10 µM: 58%
[2]
  inhibition at 10 µM: 38.1%
[3]
  inhibition at 10 µM: 39.5%
[4]
  inhibition: 47.3%
[5]
  inhibition: 89.2%
[6]
  inhibition at 10 µM: 70%
[7]
  inhibition at 10 µM: 31.5%
[8]
  inhibition: 79%
[9]
  inhibition: 89.4%

## COc1cc(NC(=O)Nc2cc(Nc3ccc(OC)c(C)c3)ncn2)cc(OC)c1
[1]
  inhibition at 10 µM: 48.3%
[2]
  inhibition at 10 µM: 19.7%
[3]
  inhibition at 10 µM: 39.7%
[4]
  inhibition: 36.6%
[5]
  inhibition: 54.9%
[6]
  inhibition at 10 µM: 62%
[7]
  inhibition at 10 µM: 13.5%
[8]
  inhibition: 74.9%
[9]
  inhibition: 46.5%

## COc1ccc(F)cc1Nc1cc(NC(=O)Nc2c(Cl)cccc2Cl)ncn1
[1]
  inhibition at 10 µM: 78%
[2]
  inhibition at 10 µM: 73.1%
[3]
  inhibition at 10 µM: 31.3%
[4]
  inhibition: 11.1%
[5]
  inhibition: 48.7%
[6]
  inhibition at 10 µM: 85.5%
[7]
  inhibition at 10 µM: 38%
[8]
  inhibition: 39.2%
[9]
  inhibition: 63.3%

## COc1cc(Br)ccc1Nc1cc(NC(=O)Nc2c(Cl)cccc2Cl)ncn1
[1]
  inhibition at 10 µM: 42.7%
[2]
  inhibition at 10 µM: 47.3%
[3]
  inhibition at 10 µM: 43%
[4]
  inhibition: 12.6%
[5]
  inhibition: 75.9%
[6]
  inhibition at 10 µM: 90.5%
[7]
  inhibition at 10 µM: 29.1%
[8]
  inhibition: 65.6%
[9]
  inhibition: 83.2%

## O=C(Nc1cccc(Nc2cc(Nc3cccc(C(F)(F)F)c3)ncn2)c1)C1CC1
[1]
  inhibition at 10 µM: 94.7%
[2]
  inhibition at 10 µM: 26%
[3]
  inhibition at 10 µM: 52.7%
[6]
  inhibition at 10 µM: 90.5%
[7]
  inhibition at 10 µM: 30%

## COc1ccc(Nc2cc(NC(=O)Nc3c(Cl)cccc3Cl)ncn2)cc1C
[1]
  inhibition at 10 µM: 63.1%
[2]
  inhibition at 10 µM: 45%
[3]
  inhibition at 10 µM: 50%
[4]
  inhibition: 50.4%
[5]
  inhibition: 67.4%
[6]
  inhibition at 10 µM: 80.1%
[7]
  inhibition at 10 µM: 29.1%
[8]
  inhibition: 47.3%
[9]
  inhibition: 76.4%

## COc1cc(NC(=O)Nc2cc(Nc3ccc(Br)cc3OC)ncn2)cc(OC)c1
[1]
  inhibition at 10 µM: 57.7%
[2]
  inhibition at 10 µM: 20.1%
[3]
  inhibition at 10 µM: 25.7%
[4]
  inhibition: -0.7%
[5]
  inhibition: 17.9%
[6]
  inhibition at 10 µM: 83%
[7]
  inhibition at 10 µM: 36%
[8]
  inhibition: 12.4%
[9]
  inhibition: 36.9%
